Where two headings read alike, the source gives them in different places.

Here are results for four compounds from PMC9000887, “Novel 1,2,3-Triazole-Coumarin Hybrid Glycosides and Their Tetrazolyl Analogues: Design, Anticancer Evaluation and Molecular Docking Targeting EGFR, VEGFR-2 and CDK-2” (Molecules, 2022).

For data set [1], the system named is human pancreatic (Paca-2) cancer cell line. As to the kind of experiment: MTT cytotoxicity assay, Paca-2. The settings on record: for inhibition at 100 µM: PaCa-2, read-out: % Inhibition Paca-2. (In general: Formazan colour is commonly taken as a measure of viable cells.)
Procedure: (§2) After 48 h incubation, the medium was aspirated and then 40 μL MTT salt (2.5 mg/mL) was added for a further 4 h. […] Doxorubicin was used as the positive control and 0.5% DMSO was used as the negative control.
The subject of data set [2] is human melanoma (Mel-501) cancer cell line. As to the kind of experiment: MTT cytotoxicity assay, Mel-501. To be noted: for IC50: read-out: IC50 (Mean ± SEM) Mel-501; for inhibition at 100 µM: read-out: % Inhibition Mel-501.
Procedure: as §2
Data set [3] has as its system human melanoma (A-375) cancer cell line. Kind of data set: MTT cytotoxicity assay, A-375. To be noted: for inhibition at 100 µM / IC50: Homo sapiens; for inhibition at 100 µM: A-375, read-out: % Inhibition A-375; for IC50: A-375, read-out: IC50 (Mean ± SEM) A-375.
Procedure: as §2
The subject of data set [4] is human prostate (PC-3) cancer cell line. As to the kind of experiment: MTT cytotoxicity assay, PC-3. To be noted: for inhibition at 100 µM / IC50: Homo sapiens; for inhibition at 100 µM: read-out: % Inhibition PC-3; for IC50: read-out: IC50 (Mean ± SEM) PC-3.
Procedure: as §2
The subject of data set [5] is human colon (Caco-2) cancer cell line. The settings on record: Caco-2, 100 µM.
Procedure: as §2
Data set [6] deals with Caspase-7. As to the kind of experiment: Caspase-7 protein level ELISA in Paca-2. The format is cell-based, human. To be noted: Paca-2, 24 h at IC50 (10.7 μM). The procedure: The micro-ELISA plate provided in this kit was pre-coated with a Caspase-7-specific antibody. A biotinylated Caspase-7 antibody and Avidin–horseradish peroxidase (HRP) conjugate was added. The excess components were removed. The substrate solution was added. Wells containing Caspase-7, biotinylated detection antibody, and Avidin-HRP conjugate appeared blue in colour. The colour turned yellow following the addition of sulphuric acid solution. The optical density (OD) was measured at a wavelength of 450 ± 2 nm.

In data set [7] the test system is PD-1. Kind of data set: PD-1 protein level ELISA in Paca-2. The format is cell-based, human. To be noted: Paca-2, 24 h at IC50 (10.7 μM); untreated control 275.6 Pg/mL. The procedure: Samples or standards were added to the wells Human PD-1 eliza kit (ab252360 Human PD-1, Abcam, Cambridge, MA, USA), followed by the antibody mix. After incubation, the wells were washed to remove unbound material. TMB Development Solution was added and during incubation was catalysed by HRP, generating blue coloration. This reaction was then stopped by the addition of Stop Solution, completing any colour change from blue to yellow. The optical density (OD) was measured at a wavelength of 450 ± 2 nm.
(In general: An ELISA detects its analyte on a solid surface through an enzyme-linked reagent.)

Data set [8] deals with Paca-2 cells. Kind of data set: Cell cycle analysis by flow cytometry (PI staining). The data set is classed as cell-based, human. To be noted: Paca-2, 24 h at IC50 (10.7 μM). The procedure: (§1) Apoptosis investigation and cell cycle analysis were elucidated by flow cytometry. Paca-2 cells were seeded at 8 × 10^4 and incubated at 37 °C in 5% CO2 overnight. […] For cell cycle analysis, cell pellets were fixed with 70% ethanol on ice for 15 min and collected again. The pellets were incubated with propidium iodide (PI) staining solution at room temperature for 1 h and analysed by a Gallios flow cytometer (Beckman Coulter, Brea, CA, USA). Apoptosis detection was carried out by FITC AnnexinV/PI commercial kit (Becton Dickenson, Franklin Lakes, NJ, USA) following the manufacturer’s protocol. The samples were analysed by fluorescence-activated cell sorting (FACS) with a Gallios flow cytometer (Beckman Coulter, Brea, CA, USA) within 1 h after staining. Data were analysed using Kaluza v 1.2 (Beckman Coulter, Brea, CA, USA).
For orientation: A flow cytometer gives signals particle by particle.

The test system of data set [9] is Cytochrome-c. As to the kind of experiment: Cytochrome-c ELISA in Paca-2. The data set is classed as cell-based, human. The settings on record: Paca-2, 24 h at IC50 (10.7 μM); control 0.123 ng/mL. The procedure: Cytochrome-c specific antibodies were precoated onto 96-well plates. Cytochrome-c were analysed by enzyme-linked immunosorbent assays (ELISAs) using commercial kits (ab119521; Abcam, Cambridge, MA, USA). The optimal dilutions were determined and ELISAs were performed according to the manufacturer’s instructions.

The test system of data set [10] is Paca-2 cells. Kind of data set: Apoptosis detection, FITC Annexin V/PI flow cytometry. The format is cell-based, human. To be noted: Paca-2, 24 h at IC50 (10.7 μM); DMSO control 0.28%. The procedure: as §1
In data set [11] the target is VEGFR-2 (Homo sapiens, UniProt P35968). As to the kind of experiment: biochemical. The procedure:
The cells were harvested, and the homogenates were prepared in saline using a tight pestle homogenizer until complete cell disruption. The kit used a double-antibody sandwich enzyme-linked immunosorbent assay (ELISA) to determine the level of human VEGFR-2 in samples. A monoclonal antibody for VEGFR-2 was pre-coated onto 96-well plates. The test samples were added to the wells and a biotinylated detection polyclonal antibody from goat specific for VEGFR-2 was added, subsequently followed by washing with PBS buffer. Avidin–Biotin–Peroxidase complex was added, and the unbound conjugates were washed away with PBS buffer. HRP substrate TMB was used to visualize HRP enzymatic reaction. TMB was catalysed by HRP to produce a blue colour product that changed into yellow after the addition of acidic stop solution. The density of yellow colour is proportional to the human VEGFR-2 amount of the sample captured in the plate. The chroma of colour and the concentration of the human VEGFR-2 of the samples were positively correlated and the optical density was determined at 450 nm. The level of human VEGFR-2 in samples was calculated (pg/mL) as duplicate determinations from the standard curve. The % inhibition was calculated in comparison to control untreated cells.

Data set [12] addresses CDK-2/cyclin A2 (Homo sapiens, UniProt P24941). As to the kind of experiment: In vitro kinase inhibitory assessment, CDK-2/cyclin A2 (ELISA). The format is biochemical. The settings on record: mean of three values; read-out: IC50 (Mean ± SEM) CDK-2/Cyclin A2. The procedure:
Assay of CDK-2/cyclin A2 was achieved through ELISA using an affinity tag labelled capture antibody. Adding the samples and the standard to the wells was carried out after the addition of the antibody mix. After the incubation period, the unrestrained substance was discarded and the wells were washed. The added TMB (3,3′,5,5′-tetramethylbenzidine) substrate was prompted by Horseradish peroxidase (HRP) and blue coloration appeared. This reaction was stopped with the addition of stop solution to complete the change in colour from blue to yellow. The created signals were equivalent to the quantity of bound analyte and Robonik P2000 ELISA reader was used to record the intensity at a certain wavelength (450 nm). The concentrations of the screened compounds were calculated through the plotted curve.

In data set [13] the target is EGFR (Homo sapiens, UniProt P00533). As to the kind of experiment: In vitro kinase inhibitory assessment, EGFR (Kinase-Glo luminescence). The format is biochemical. To be noted: mean of three values; read-out: IC50 (Mean ± SEM) EGFR.
Data set [14] has as its system human colon (Caco-2) cancer cell line. Kind of data set: MTT cytotoxicity assay, Caco-2. The settings on record: for % Inhibition Caco-2: Caco-2, at 100 µM, MTT, (-) No activity detected; for IC50: read-out: IC50 (Mean ± SEM) Caco-2, Caco-2, MTT, three independent determinations.
Procedure: as §2
Data set [15] deals with Caspase-3. As to the kind of experiment: Caspase-3 protein level ELISA in Paca-2. The data set is classed as cell-based, human. To be noted: Paca-2, 24 h at IC50 (10.7 μM). From the text: The precoated micro-ELISA plate with an antibody specific to Caspase-3 was applied using the Human Caspase-3 ELISA Kit from Invitrogen INC. Catalog # KHO1091 (96 tests) (542 Flynn Road, Camarillo, CA, USA) according to the manufacturer’s instructions.

The mark [16] stands for this setting: Homo sapiens, PaCa-2, read-out: IC50 (Mean ± SEM) Paca-2.

Chain of VEGFR-2 (P35968 20-1356): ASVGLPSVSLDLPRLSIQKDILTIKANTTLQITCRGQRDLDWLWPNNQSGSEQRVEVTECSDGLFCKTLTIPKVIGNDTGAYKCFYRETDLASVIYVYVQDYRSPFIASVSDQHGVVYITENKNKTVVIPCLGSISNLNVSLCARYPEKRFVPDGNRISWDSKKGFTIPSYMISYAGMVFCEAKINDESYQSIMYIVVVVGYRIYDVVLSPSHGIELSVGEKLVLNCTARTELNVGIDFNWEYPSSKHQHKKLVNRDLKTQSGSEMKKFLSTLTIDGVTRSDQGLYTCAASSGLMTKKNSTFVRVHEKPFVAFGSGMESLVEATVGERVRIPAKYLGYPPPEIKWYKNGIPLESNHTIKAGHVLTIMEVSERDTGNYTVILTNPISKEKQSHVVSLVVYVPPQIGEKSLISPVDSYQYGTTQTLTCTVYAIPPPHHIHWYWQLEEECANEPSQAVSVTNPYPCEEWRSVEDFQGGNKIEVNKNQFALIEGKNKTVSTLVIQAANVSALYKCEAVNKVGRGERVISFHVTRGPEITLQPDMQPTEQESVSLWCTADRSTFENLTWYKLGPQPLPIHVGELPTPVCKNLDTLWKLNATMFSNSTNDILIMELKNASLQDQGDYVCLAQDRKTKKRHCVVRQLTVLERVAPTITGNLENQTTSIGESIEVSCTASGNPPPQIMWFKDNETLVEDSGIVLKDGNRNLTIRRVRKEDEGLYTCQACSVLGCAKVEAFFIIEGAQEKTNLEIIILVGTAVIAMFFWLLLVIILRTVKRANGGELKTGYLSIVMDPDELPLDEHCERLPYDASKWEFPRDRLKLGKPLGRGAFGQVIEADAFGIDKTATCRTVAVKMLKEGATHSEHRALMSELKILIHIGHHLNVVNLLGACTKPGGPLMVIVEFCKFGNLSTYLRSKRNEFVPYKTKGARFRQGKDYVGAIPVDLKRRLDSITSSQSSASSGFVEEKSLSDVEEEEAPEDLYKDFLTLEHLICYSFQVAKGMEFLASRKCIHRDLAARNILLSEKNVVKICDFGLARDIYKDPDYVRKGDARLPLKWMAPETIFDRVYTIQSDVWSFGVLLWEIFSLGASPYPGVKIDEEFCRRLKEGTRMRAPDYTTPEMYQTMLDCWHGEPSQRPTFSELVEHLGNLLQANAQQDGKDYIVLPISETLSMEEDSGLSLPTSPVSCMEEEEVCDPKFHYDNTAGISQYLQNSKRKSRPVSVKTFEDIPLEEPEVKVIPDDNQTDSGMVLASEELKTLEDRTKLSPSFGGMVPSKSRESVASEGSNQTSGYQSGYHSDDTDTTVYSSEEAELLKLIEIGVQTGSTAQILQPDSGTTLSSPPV
Chain of EGFR (P00533 25-1210): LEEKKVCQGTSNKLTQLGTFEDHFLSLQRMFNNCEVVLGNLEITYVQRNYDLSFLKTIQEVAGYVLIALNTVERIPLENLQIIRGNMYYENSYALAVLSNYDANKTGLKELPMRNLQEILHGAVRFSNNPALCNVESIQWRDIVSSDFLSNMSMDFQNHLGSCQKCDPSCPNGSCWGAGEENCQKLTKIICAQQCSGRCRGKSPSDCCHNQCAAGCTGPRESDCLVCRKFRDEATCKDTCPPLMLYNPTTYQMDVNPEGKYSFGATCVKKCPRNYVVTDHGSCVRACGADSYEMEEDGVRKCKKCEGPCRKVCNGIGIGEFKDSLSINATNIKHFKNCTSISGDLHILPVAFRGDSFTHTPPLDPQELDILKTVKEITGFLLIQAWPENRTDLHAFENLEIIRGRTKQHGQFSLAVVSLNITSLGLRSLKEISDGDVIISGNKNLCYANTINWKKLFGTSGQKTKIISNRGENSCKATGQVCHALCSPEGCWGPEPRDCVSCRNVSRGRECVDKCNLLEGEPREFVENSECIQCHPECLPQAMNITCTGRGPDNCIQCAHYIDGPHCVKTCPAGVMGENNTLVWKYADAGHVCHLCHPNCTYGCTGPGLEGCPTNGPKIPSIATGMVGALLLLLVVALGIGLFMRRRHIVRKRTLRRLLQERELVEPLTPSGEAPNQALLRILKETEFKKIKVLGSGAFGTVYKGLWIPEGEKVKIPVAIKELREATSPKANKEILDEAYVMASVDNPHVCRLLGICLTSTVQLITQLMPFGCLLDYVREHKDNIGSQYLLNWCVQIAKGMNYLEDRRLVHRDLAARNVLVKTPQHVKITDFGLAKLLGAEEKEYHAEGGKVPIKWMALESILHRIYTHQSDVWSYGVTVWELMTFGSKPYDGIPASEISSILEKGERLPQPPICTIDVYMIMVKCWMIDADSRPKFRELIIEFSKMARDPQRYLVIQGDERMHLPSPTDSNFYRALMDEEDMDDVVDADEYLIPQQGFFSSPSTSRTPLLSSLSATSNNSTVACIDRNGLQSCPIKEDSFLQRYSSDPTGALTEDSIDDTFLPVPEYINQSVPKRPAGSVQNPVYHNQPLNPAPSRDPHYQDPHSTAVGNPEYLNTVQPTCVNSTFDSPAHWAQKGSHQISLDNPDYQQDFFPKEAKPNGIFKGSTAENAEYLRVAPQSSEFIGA

Turning to “4-Phenyl-7-((1-(2,3,4-tri-O-acetyl-β-D-xylopyranosyl)-2H-tetrazol-5-yl)methoxy)-2H-chromen-2-one [Compound 6]”, in data set [1] (Paca-2, at 100 µM, MTT), the “% Inhibition Paca-2” value came to 72.1%. The IC50 in [1] (read-out: IC50 (Mean ± SEM) Paca-2, Paca-2, MTT, 100 to 0.78 μM, three independent determinations) turned out to be 60 ± 1.4 µM; in data set [2] (Mel-501, MTT, three independent determinations), 80.4 ± 2.1 µM. Further, in data set [2] (Mel-501, at 100 µM, MTT), the “% Inhibition Mel-501” value is reported as 71%. Further, the “% Inhibition A-375” value in [3] (A-375, at 100 µM, MTT) turned out to be 45.8%. Moreover, the “% Inhibition PC-3” value in data set [4] (PC-3, at 100 µM, MTT) worked out at 9.1%. In data set [5], the “% Inhibition Caco-2” value is listed as “-”.

Usually inhibition stands for the percentage by which the read-out fell short of the control. For the compound `O=c1cc(-c2ccccc2)c2ccc(OCc3nnn(CC(O)CO)n3)cc2o1` (stereo not drawn) [Compound 10, 7-((2-(2,3-Dihydroxypropyl)-2H-tetrazol-5-yl)methoxy)-4-phenyl-2H-chromen-2-one], the “elevation of caspase-7 protein level” value in [6] (versus control) is listed as 4.3 fold. In addition, in [6] (control 0.555 ng/mL), the “caspase-7 protein level in treated cells” value is given as 2.363 ng/mL. In addition, in data set [7], the “PD-1 level in treated cells” value is 91.4 pg/mL. Also, the “increase of percentage of the cells at S phase compared to the control” value in data set [8] was 1.3 folds. Further, in [8], the “increase of pre-G1 phase cells percentage compared to the control” value was 15.7 folds. Further, the “cytochrome-c release into the cytosol of treated cells” value in data set [9] is on record as 0.395 ng/mL. The inhibition at 100 µM was determined as 99.9% in [1] (Homo sapiens), 95.8% in data set [2] (Homo sapiens), 98.2% in data set [3] and 99.2% in [4]. Further, the IC50 in data set [1] (setting [16]) is 10.7 ± 0.4 µM; in data set [2] (Homo sapiens), 8.8 ± 0.2 µM; in data set [3], 10.9 ± 0.1 µM; in [4] it was 25.4 ± 0.5 µM; in data set [11], 0.86 ± 0.25 µM; in data set [12], 0.19 ± 0.05 µM. Moreover, the IC50 in [13] was 0.09 ± 0.21 µM; in data set [14] it was 31.9 ± 0.7 µM. Moreover, the “late/secondary cellular apoptosis (PI / Annexin V-FITC, upper right quadrant)” value in data set [10] was 15.55%. Also, the “% Inhibition Caco-2” value in [14] was 99.6%. In data set [15] (versus control), the “upregulation of caspase-3 protein level” value was determined as 2.8 fold. Moreover, in data set [15] (control 95.04 Pg/mL), the “caspase-3 protein level in treated cells” value worked out at 266.8 pg/mL.

One may read the melting point as the temperature, or range, at which the solid turns liquid. `CC(=O)OC[C@H]1O[C@@H](n2cc(COc3ccc4c(-c5ccccc5)cc(=O)oc4c3)nn2)[C@H](OC(C)=O)[C@@H](OC(C)=O)[C@@H]1OC(C)=O` [Compound 13, 4-Phenyl-7-((1-(2,3,4,6-Tetra-O-acetyl-β-D-glucopyranosyl)-1H-1,2,3-triazol-4-yl)methoxy)-2H-chromen-2-one]: the melting point is 131 to 132 °C. Also, in data set [1] (Homo sapiens), the inhibition at 100 µM worked out at 97.6%. In addition, the IC50 in data set [1] (setting [16]) was 14.6 ± 1.1 µM. In data set [2] (Homo sapiens), the inhibition at 100 µM worked out at 98.5% and the IC50 was determined as 16.7 ± 0.3 µM. Besides, in data set [3], the inhibition at 100 µM is 96.9% and the IC50 is 14.5 ± 0.2 µM. Further, in data set [4], the inhibition at 100 µM worked out at 95.6% and the IC50 worked out at 22.3 ± 0.6 µM. This compound came in with an IC50 in [11] of 45 ± 0.1 µM. In addition, the IC50 in data set [12] is 0.5 ± 0.11 µM. For the same compound, the IC50 in data set [13] stood at 66 ± 0.01 µM. Also, in data set [14], the “% Inhibition Caco-2” value was 99.6% and the IC50 worked out at 40.5 ± 0.9 µM.

`CC(=O)OC1COC(n2cc(COc3ccc4c(-c5ccccc5)cc(=O)oc4c3)nn2)C(OC(C)=O)C1OC(C)=O` [Compound 15, 4-Phenyl-7-((1-(2,3,4-tria-O-acetyl-β-D-xylopyranosyl)-1H-1,2,3-triazol-4-yl)methoxy)-2H-chromen-2-one]: the melting point fell in the range of 89 to 90 °C. Further, the inhibition at 100 µM in data set [1] (Homo sapiens) was 95%. In data set [1] (setting [16]), the IC50 worked out at 16.9 ± 0.9 µM. In data set [2] (Homo sapiens), the inhibition at 100 µM worked out at 97.8% and the IC50 came to 4.1 ± 0.3 µM. For the same compound, in data set [3], the inhibition at 100 µM was 94.7% and the IC50 was found to be 9.9 ± 1 µM. In addition, in data set [4], the inhibition at 100 µM was 98.2% and the IC50 was found to be 12.5 ± 0.9 µM. Further, the IC50 in data set [11] was 40 ± 0.05 µM. For the same compound, in [12], the IC50 was 0.48 ± 0.15 µM. Also, in data set [13], the IC50 worked out at 53 ± 0.15 µM. In data set [14], the “% Inhibition Caco-2” value is 99.3% and the IC50 was determined as 20.4 ± 0.6 µM.
